PMC5390258, “CMD-05, a novel promising clinical anti-diabetic drug candidate, in vivo and vitro studies” (Scientific Reports, 2017)
Like-named read-outs stand apart in the source and are kept apart here.

Assays:
recombinant human DPP-IV = target: T1, recombinant human DPP-IV (Homo sapiens, UniProt P27487); assay: Recombinant human DPP-IV activity assay; assay type: biochemical; conditions: Gly-Pro-MCA substrate, read-out: IC50 of DPP-IV inhibition
T1 construct: purchased R&D systems, USA
Method: DPP-IV inhibition assay was carried out using either 5 ng purified recombinant human DPP-IV (rhDPP-IV) (R&D systems, USA). Recombinant DPP-IV was mixed with ddH2O in an assay buffer (25 mM Tris-HCl, 0.2 M NaCl, 0.1% BSA, pH 7.3). […] The vehicle comprised 1% DMSO in place of test compounds. […] The fluorescence intensity of AMC corresponded to DPP-IV activity.

LO-2 cells = assay: Cytotoxicity in LO-2 cells (CCK-8); assay type: cell-based; conditions: 1 × 10^−4 M, 12 h
Method: (§1) The toxicities of CMD-05 on HT22, 293 and […] cell lines was assessed using Cell Counting Kit-8 (CCK-8) (Biosharp, China). Briefly, the cells were plated on 96-well plates. […] The absorbance at 450 nm was measured using a microplate spectrophotometer.

HbA1c = HbA1c level in blood of model rats; assay type: in vivo, rat; conditions: 30 days
Method: (§2) To establish model of T2DM, male rats (80–100 g, 9-week-old)[49] were fed high fat diet (HFD) (20% sugar, 10% lard, 10% egg yolk and 60% basal feed) after a week of normal diet. After 4 weeks, rats were injected once with low-dose streptozotocin (Solarbio, China) (STZ, 30 mg/kg i.p) to induce partial insulin deficiency, and then continuously fed HFD for 4 weeks after injection of STZ. Then the model rats were oral administrated drugs for 30 days. The body weights were recorded once a week.
(§3) Oral glucose load, fasted and random blood samples were collected from rats on the 28th days, the 29th days and the last of the treatment of drugs, respectively. Plasma levels of insulin and GLP-1 were measured by ELISA kits (YuanYe, China) according to the manufacturer’s recommendation. The levels of HbA1c, Triglycerides (TG), total cholesterol (TC) and low density lipoprotein cholesterol (LDL-C) in blood samples were measured by commercial assay kits (JianCheng, Nanjing, China) according to the manufacturer’s directions.

HT22 cells = assay: Cytotoxicity in HT22 cells (CCK-8); assay type: cell-based; conditions: 3 × 10^−6 to 3 × 10^−5 M, 12 h
Method: as §1

INS-1 cells = assay: Proliferation of INS-1 cells (CCK-8); assay type: cell-based, rat; conditions: 1 × 10^−4 and 3 × 10^−5 M, 24 h, CCK-8, vs DMSO
Method: The rat insulinoma cell line INS-1 (832/13) was obtained from the Department of endocrinology at 1st affiliated hospital of Chongqing medical university. Cells were cultured in RPMI 1640 (Gibco, USA) (11 mmol/l glucose, 100 units/ml penicillin, […] streptomycin, 10 mmol/l HEPES pH 7.4) supplemented with 10% FBS (Gibco, USA), 2 mmol/l L-glutamine, 1 mmol/l pyruvate, and 50 μmol/l β-mercaptoethanol. […] 10 μl of CCK-8 was then added and incubated at 37 °C and 5% CO2 for 1.5 h and […] (OD) was read at 460 nm with microplate reader. The OD value represents the proliferation activity.

plasma DPP-IV = target: T2, plasma DPP-IV (Rattus norvegicus, UniProt P14740); assay: Plasma DPP-IV activity determination in model rats; assay type: in vivo
T2 construct: from tissue; host or cells: plasma of Sprague-Dawley rats

GLP-1 = assay: Plasma GLP-1 levels in model rats (ELISA); assay type: in vivo, rat; conditions: 4.5 mg/kg, glucose load and random plasma
Method: as §2, §3

Pharmacokinetics in rats = assay type: in vivo, rat
Method: Male SD rats (200–220 g) were fasted overnight to administration of CMD-05 intravenously via tail vein (50 mg/kg, n = 4) or by oral gavage (50 mg/kg, n = 4). Blood samples of 0.3 ml were collected from the orbital venous at 1 min, 3 min, 5 min, 15 min, 30 min, 60 min, 120 min, 240 min, 480 min, 720 min after tail vein injection of CMD-05 and at 15 min, 30 min, 45 min, 60 min, 120 min, 240 min, 480 min, 720 min after oral of CMD-05. Plasma was obtained after centrifugation. The concentrations of CMD-05 in plasma were determined by HPLC method. The pharmacokinetic parameters of CMD-05 in the rats were analyzed by DAS2 software.

293 cells = assay: Cytotoxicity in 293 cells (CCK-8); assay type: cell-based; conditions: 12 h
Method: as §1

NCI-H716 cells = assay: GLP-1 secretion in NCI-H716 cells; assay type: cell-based, human; conditions: 100 μM, 2 h; solvent group 6.6 ± 0.14 pmol/L
Method: Human enteroendocrine NCI-H716 cells were maintained in suspension culture as described by the American Type Culture Collection guideline (ATCC). Two days before the experiments, cells were seeded into 12-well culture plates coated with Matrigel at 1 × 10^6 cells per well. Cells were incubated in RPMI 1640 containing 10% FBS at 37 °C for 48 h. […] After incubated for 2 h, GLP-1 concentrations from the supernatants were measured by ELISA kits (YuanYe, China).

insulin = assay: Plasma insulin levels in model rats (ELISA); assay type: in vivo, rat; conditions: 1.5 and 4.5 mg/kg, fasted, glucose load and random plasma
Method: as §2, §3

[1] = fasted plasma, read-out: plasma DPP-IV inhibition rate
[2] = glucose load plasma, read-out: plasma DPP-IV inhibition
[3] = random plasma, read-out: plasma DPP-IV inhibition

T2 sequence (P14740 whole entry): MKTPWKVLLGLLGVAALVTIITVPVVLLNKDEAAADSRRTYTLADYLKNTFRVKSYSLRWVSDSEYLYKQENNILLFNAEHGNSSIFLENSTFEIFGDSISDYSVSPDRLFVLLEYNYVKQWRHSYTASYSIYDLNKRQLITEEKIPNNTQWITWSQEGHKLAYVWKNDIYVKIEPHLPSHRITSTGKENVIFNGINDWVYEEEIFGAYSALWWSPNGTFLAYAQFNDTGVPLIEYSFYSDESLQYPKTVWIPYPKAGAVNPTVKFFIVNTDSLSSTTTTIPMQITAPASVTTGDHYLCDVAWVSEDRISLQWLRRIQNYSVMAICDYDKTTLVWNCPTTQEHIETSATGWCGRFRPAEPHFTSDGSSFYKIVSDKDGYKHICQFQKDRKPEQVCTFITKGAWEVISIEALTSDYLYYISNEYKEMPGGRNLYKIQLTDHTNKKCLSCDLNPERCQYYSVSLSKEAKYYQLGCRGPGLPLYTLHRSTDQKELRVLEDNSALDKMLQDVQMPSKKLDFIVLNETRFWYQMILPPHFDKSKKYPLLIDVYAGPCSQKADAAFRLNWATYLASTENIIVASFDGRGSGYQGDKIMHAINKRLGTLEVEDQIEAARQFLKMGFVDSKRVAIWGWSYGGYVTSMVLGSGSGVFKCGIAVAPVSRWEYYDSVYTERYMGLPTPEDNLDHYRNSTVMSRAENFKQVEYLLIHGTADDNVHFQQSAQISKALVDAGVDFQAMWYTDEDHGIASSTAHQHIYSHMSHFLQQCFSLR
T1 sequence (P27487 whole entry): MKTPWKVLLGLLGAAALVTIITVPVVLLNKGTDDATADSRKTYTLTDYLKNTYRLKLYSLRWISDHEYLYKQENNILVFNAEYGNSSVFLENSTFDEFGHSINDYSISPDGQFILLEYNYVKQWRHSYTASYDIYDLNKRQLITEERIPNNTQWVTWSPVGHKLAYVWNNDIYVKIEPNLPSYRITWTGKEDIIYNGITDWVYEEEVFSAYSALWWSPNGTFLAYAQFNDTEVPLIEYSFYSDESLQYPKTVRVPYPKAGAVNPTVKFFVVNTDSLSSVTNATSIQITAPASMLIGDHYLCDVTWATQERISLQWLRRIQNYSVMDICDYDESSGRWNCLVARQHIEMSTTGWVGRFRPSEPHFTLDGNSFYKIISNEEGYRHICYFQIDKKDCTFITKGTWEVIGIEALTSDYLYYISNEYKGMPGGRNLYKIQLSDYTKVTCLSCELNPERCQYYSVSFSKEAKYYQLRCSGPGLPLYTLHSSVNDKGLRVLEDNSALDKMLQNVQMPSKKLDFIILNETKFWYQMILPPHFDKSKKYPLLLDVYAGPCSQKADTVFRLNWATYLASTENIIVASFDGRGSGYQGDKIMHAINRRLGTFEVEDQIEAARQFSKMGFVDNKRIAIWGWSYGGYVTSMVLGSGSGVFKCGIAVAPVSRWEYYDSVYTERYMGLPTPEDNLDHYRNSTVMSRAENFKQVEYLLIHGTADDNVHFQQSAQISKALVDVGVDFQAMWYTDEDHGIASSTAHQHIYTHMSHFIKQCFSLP

For `N#C[C@@H]1CCCN1C(=O)CN(C(=O)CCCCCl)C12CC3CC(CC(O)(C3)C1)C2` [CMD-05], which IC50 (recombinant human DPP-IV) is on record?
Its IC50 is 12 nM.

What about the “cytotoxicity (cell viability)” value (LO-2 cells) of the same compound?
Its value is “no detectable toxic effect”.

What about the “reduction of the level of HbA1c” value (HbA1c; 1.5 mg/kg) of the same compound?
The value was 1.0%.

And the “reduction of the level of HbA1c” value (HbA1c; 4.5 mg/kg)?
Its value is 2.2%.

And the “cytotoxicity (cell viability)” value (HT22 cells)?
The value was “did not induce significant cytotoxicity”.

And the “cells viabilities (proliferation) of INS-1 cells” value (INS-1 cells)?
The value was “increased”.

What about the inhibition at 0.5 mg/kg (plasma DPP-IV; [1]) of the same compound?
Its inhibition at 0.5 mg/kg is roughly 20%.

What about the inhibition at 1.5 mg/kg (plasma DPP-IV; [1]) of the same compound?
The inhibition at 1.5 mg/kg was roughly 30%.

What about the inhibition at 4.5 mg/kg (plasma DPP-IV; [1]) of the same compound?
The inhibition at 4.5 mg/kg was roughly 50%.

What about the inhibition at 0.5 mg/kg (plasma DPP-IV; [2]) of the same compound?
Its inhibition at 0.5 mg/kg is roughly 10%.

And the inhibition at 1.5 mg/kg (plasma DPP-IV; [2])?
The inhibition at 1.5 mg/kg was roughly 20%.

What about the inhibition at 4.5 mg/kg (plasma DPP-IV; [2]) of the same compound?
Its inhibition at 4.5 mg/kg is roughly 70%.

What about the inhibition at 0.5 mg/kg (plasma DPP-IV; [3]) of the same compound?
Its inhibition at 0.5 mg/kg is roughly 20%.

And the inhibition at 1.5 mg/kg (plasma DPP-IV; [3])?
Its inhibition at 1.5 mg/kg is roughly 30%.

What about the inhibition at 4.5 mg/kg (plasma DPP-IV; [3]) of the same compound?
The inhibition at 4.5 mg/kg was roughly 55%.

What about the “levels of GLP-1 in plasma” value (GLP-1) of the same compound?
The value was “significantly increased”.

And the “effect of food on pharmacokinetics” value (Pharmacokinetics in rats; healthy rats)?
The value was “not affected by food”.

What about the half-life (Pharmacokinetics in rats; male, SD, rat, plasma, oral, 50 mg/kg, rats, 50 mg/kg, read-out: half-life) of the same compound?
Its half-life is 4.8 h.

And the Tmax (Pharmacokinetics in rats; male, SD, rat, plasma, po, 50 mg/kg, rats, single oral 50 mg/kg, read-out: time to peak plasma concentration (converted))?
The Tmax was 0.5 h.

And the bioavailability (Pharmacokinetics in rats; male, SD, rat, plasma, rats, 50 mg/kg oral vs intravenous, read-out: absolute bioavailability)?
Its bioavailability is 84.5%.

And the half-life (Pharmacokinetics in rats; rats, 50 mg/kg)?
The half-life was 4.798 ± 0.437 h.

And the “time to peak plasma concentration” value (Pharmacokinetics in rats; rats, single oral 50 mg/kg, 50 mg/kg)?
Its value is 30 to 45 min.

What about the “cytotoxicity (cell viability)” value (293 cells; 1 × 10^−4 M) of the same compound?
Its value is “slightly reduced cell viability”.

And the “cytotoxicity (cell viability)” value (293 cells; 3 × 10^−6 to 1 × 10^−5 M)?
Its value is “did not induce significant cytotoxicity”.

And the GLP-1 secretion (NCI-H716 cells)?
The GLP-1 secretion was 7.5 ± 0.44 pmol/L.

And the “insulin levels in plasma” value (insulin)?
The value was “significantly increased”.
